{
  "source": "paper PMC5686072",
  "about": "“Targeting SxIP-EB1 interaction: An integrated approach to the discovery of small molecule modulators of dynamic binding sites” (Scientific Reports, 2017)",
  "target": "T1, EB1_191–260 (EB1c) (Homo sapiens, UniProt Q15691)",
  "T1 construct": "Human EB1 (Uniprot code Q15691), residues 191–260, was cloned into pOPINS vector; SUMO fusion protein (cleaved yes); 6xHis (cleaved yes); made in house; host or cells: E. coli BL21 Star (DE3)",
  "T1 sequence (Q15691 191-260)": "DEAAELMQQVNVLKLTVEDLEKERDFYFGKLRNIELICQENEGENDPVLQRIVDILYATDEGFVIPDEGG",
  "assay": "1H-15N HSQC NMR ligand screening / titration (chemical shift perturbations, KD by curve fitting)",
  "assay_type": "binding",
  "settings": "NMR titration curves (Tyr247) fitted to two-state exchange model; 50 μM protein; read-out: estimated KD",
  "description": "The ^1H and ^15N resonances were fully assigned using complementary pairs of triple resonance NMR spectra - CBCA(CO)NH/HNCACB for Cα and Cβ and HNCO/HN(CA)CO for CO connectivities.\nLigand-induced chemical shift perturbations (CSPs) in NH resonances on addition of the ligand were used as an indication of ligand binding and location of the binding site.\nNMR spectra were collected on Bruker Avance III 600 and 800 MHz spectrometers equipped with CryoProbes. Spectra were processed with TopSpin (Bruker) and analysed using CCPNmr Analysis[35]. ^1H-^15N HSQC ligand screening ^1H-^15N- Heteronuclear Single Quantum Coherence (HSQC) experiments for ligand binding screening were performed using 0.05 mM ^15N-labelled EB1 in 20 mM phosphate pH 6.5, 50 mM NaCl, 0.5 mM TCEP, 0.02% (w/v) NaN3 in the absence or presence of ligands. To eliminate any small shifts induced by the small amounts of DMSO used to dissolve the compounds, DMSO concentration was kept constant in all experiments.\nThe dotted lines connect the values calculated for the best-fit curves at the titration points. Ligand concentration corresponds to the excess of ligand (e.g. 10-fold excess, 20-fold excess) to the protein concentration (50 μM). Binding constants were evaluated by fitting the experimental data to the […]\n∆δ = ∆δ {([P] + [L] + K ) − [([P] + [L] + K )2 − 4[P] [L] ]1⁄2}⁄2[P] […]",
  "note": "Where a SMILES comes first, the peptide text is derived from it.",
  "data": [
    {"smiles": "Cc1c(NC(=O)[C@@H](C)Sc2nnnn2C2CCCC2)c(=O)n(-c2ccccc2)n1C", "note": "[1d]", "values": [
      {"measurement": "Kd", "value": "6 ± 1", "unit": "mM"}
    ]},
    {"smiles": "C[C@@H](Sc1nnnn1C1CCCC1)C(=O)NCc1ccco1", "note": "[1a]", "values": [
      {"measurement": "Kd", "value": "10 ± 3", "unit": "mM"}
    ]},
    {"smiles": "CC[C@H](C)[C@H](NC(=O)[C@H](CCCCN)NC(=O)[C@@H](N)CO)C(=O)N1CCC[C@H]1C(=O)O", "note": "[SKIP, reference compound] (H-SKIP-OH)", "values": [
      {"measurement": "Kd", "value": "14 ± 1.9", "unit": "mM"}
    ]}
  ]
}
